Laboratory results: patent US20260199287A1, “LIPO-HYDROXAMIC ACID DERIVATIVE AND PHARMACEUTICAL USE THEREOF” (MediciBIO Co., Ltd, priority 2022, published 2026)
Where two headings read alike, the source gives them in different places.

Tests used:
[1] = Stability as an eye drop composition (HPLC peak area); assay type: physicochemical; details: for Peak area(%) Sample 1 / Peak area(%) Total amount of decomposed products: HPLC
Method: In order to identify the stability of the lipo-hydroxamic acid derivative prepared above as an eye drop composition, the ratio (peak area, % o) of the active ingredient and decomposed product of the sample (Sample 1) was determined via HPLC analysis.

[2] = assay type: in vitro ADME
[3] = tested on: human corneal endothelial cells; test: In vitro antioxidant activity, ROS-Glo H2O2 assay in corneal dystrophy-like environment; assay type: cell-based; details: compared to control group (corneal dystrophy-mimicking: UV 5 J/cm^2 + TGF-β1 10 ng/ml); sample 4 h before induction
Method: (§1) PriNeu I medium, which is a serum-free medium, was supplemented with 10% fetal bovine serum, human epidermal growth factor (EGF), human vascular endothelial growth factor (VEGF), human insulin, human transferrin, sodium selenite, hydrocortisone, heparin, R estradiol, L-glutamine, penicillin/streptomycin, and G418 (geneticin). Human corneal endothelial cells (purchased from Creative Biolabs (NY, USA)) were seeded onto culture dishes coated with FNC Coating Mix (Athena Environmental Science, MD, USA) and incubated at 37° C. in a humidified 5% CO2 atmosphere.
To establish an intracellular environment similar to that of cells affected by corneal dystrophy (hereinafter referred to as “corneal dystrophy-like environment”), cellular signaling pathways involving reactive oxygen species (ROS) and transforming growth factor-beta (TGF-β), both known to be associated with corneal dystrophy, were activated. Human corneal endothelial cells were first cultured in standard medium for 24 hours, after which the medium was replaced with serum-free PriNeu I medium. The cells were then irradiated at an intensity of 5 J/cm^2 using a UV irradiation (BLX-Link, Vilber, France). Subsequently, the cells were treated with recombinant human TGF-β1 protein at a concentration of 10 ng/ml (Bon Opus, NJ, USA).
To determine the effect of the above-prepared lipo-hydroxamic acid derivatives on oxidative stress activity in corneal endothelial cells, human corneal endothelial cells were cultured at 1.5×10^4 cells per well in a 96-well plate coated with FNC Coating Mix for 18 to 24 hours. Subsequently, the cells were treated with the test samples (Samples 1, 3, and 5). […] The oxidative stress activity was determined by measuring the level of hydrogen peroxide (hereinafter referred to as “H2O2”) in the cell culture medium using the ROS-Glo™ H2O2 Assay (Promega, WI, USA) according to the manufacturer's instructions. The luminescence intensity was measured using the GloMax® Discover microplate reader (Promega) at an excitation wavelength of 485 nm and an emission wavelength of 520-530 nm.

[4] = tested on: human corneal endothelial cells; test: Anti-apoptotic effect, CellTiter-Glo 2.0 cell viability assay in corneal dystrophy-like environment; assay type: cell-based; details: compared to control group (corneal dystrophy-mimicking); 24 hours treatment
Method: as §1, with “atmosphere. […]” for “atmosphere.”
In order to identify the effect of the lipo-hydroxamic acid derivative prepared above on apoptosis caused by corneal dystrophy in corneal endothelial cells, human corneal endothelial cells were cultured in the same manner as in Example 3-1. […] Afterwards, the samples (Samples 1, 4, and 5) were pretreated for 24 hours, and cell viability was measured via the CellTiter-Glo 2.0 cell viability assay (Promega). The number of viable cells was determined based on intracellular ATP levels, and the luminescence intensity was measured using a GloMax Discover microplate reader (Promega).

[5] = tested on: nuclear factor erythroid-2-related factor 2 (Nrf2); test: Western blot of Nrf2 protein expression; assay type: cell-based, human; details: compared to the control; corneal dystrophy-like environment
Method: To identify a mechanism of antioxidant activity of the lipo-hydroxamic acid derivative prepared above, Western blot was performed to detect protein expression of nuclear factor erythroid-2-related factor 2 (Nrf2; NCBI Gene ID: 4780) which is an antioxidant transcription factor. First, human corneal endothelial cells were cultured at 3×10^5 cells per well in a 6-well plate coated with FNC Coating Mix for 18 to 24 hours, and the samples were treated. Four hours after the sample treatment, the corneal dystrophy-like environment was induced in accordance with the method described in Example 3-2. Twenty-four hours after induction of the corneal dystrophy-like environment, the cells were washed with phosphate-buffered saline (PBS) and lysed using RIPA lysis buffer (GenDEPOT) containing protease inhibitor cocktail tablets (GenDEPOT, TX, USA). The cell lysates were centrifuged at 13,000 rpm at 4° C. for 10 minutes to obtain the supernatant. Protein concentration in the supernatant was determined using a BCA kit (Thermo Fisher Scientific, MA, USA). Equal amounts of protein were mixed with 5x SDS sample buffer and boiled for 5 minutes, followed by gel electrophoresis. The separated proteins were transferred to a nitrocellulose membrane (GenDEPOT), and nonspecific antibody binding was blocked by incubating the membrane in 5% skim milk at room temperature for 1 hour. […]

NQO-1 = test: Real-time PCR, NQO-1 mRNA; assay type: cell-based, human; details: corneal dystrophy-like environment
Method: (§2) To identify the antioxidant mechanism of the lipo-hydroxamic acid derivative prepared above, real-time PCR was performed to detect the mRNA expression levels of the antioxidant enzymes downstream of Nrf2. First, human corneal endothelial cells were cultured at 3×10^5 cells per well in a 6-well plate coated with FNC Coating Mix for 18 to 24 hours, and the samples were treated. Four hours after the sample treatment, the corneal dystrophy-like environment was induced using the same method as described in Example 3-2. Twenty-four hours after inducing the corneal dystrophy-like environment, RNA was isolated from the cells using an RNA extraction kit (Bioneer, Daejeon), and cDNA was synthesized from […] of RNA using RT PreMix (Bioneer). Subsequently, real-time PCR was performed using GoTaq mater mix (Promega) containing SYBR green solution at 95° C. for 2 minutes, followed by 35 cycles at 95° C. for 15 seconds and at 60° C. for 1 minute.

HO-1 = test: Real-time PCR, HO-1 mRNA; assay type: cell-based, human; details: corneal dystrophy-like environment
Method: as §2

peroxiredoxin 1 (Prdx1) = test: Real-time PCR, Prdx1 mRNA; assay type: cell-based, human; details: corneal dystrophy-like environment
Method: as §2

ABCB6 = test: Real-time PCR, ABCB6 mRNA; assay type: cell-based, human; details: corneal dystrophy-like environment
Method: as §2

Smad2/3 = test: Western blot of Smad2/3 phosphorylation; assay type: cell-based, human; details: compared to the control group (corneal dystrophy-mimicking)
Smad3 = test: SMAD3 (pS423/pS425) ELISA; assay type: cell-based, human; details: compared to the control group (corneal dystrophy-like environment)
Method: To identify the effect of the lipo-hydroxamic acid derivative prepared above on the expression of factors associated with fibrosis- and cellular degeneration-related factors in corneal endothelial cells, ELISA was performed to observe the activity of Smad3 protein. Analysis was carried out using SMAD3 (pS423/pS425) Human InstantOne ELISA kit (Thermo Fisher Scientific) according to the manufacturer's instructions. Human corneal endothelial cells were seeded in a 96-well plate at 2×10^4 cells per well, cultured for 24 hours, and then treated with the sample. Twenty-four hours after the sample treatment, the corneal dystrophy-like environment was induced in the same manner as in Example 3-2. Twenty-four hours after the induction, the cells were washed with PBS, lysed by adding 100 μL of lysis buffer mixture prepared by mixing the cell lysis reagent and buffer supplied in the kit. Subsequently, 50 μL of the cell lysate from each sample was added to the ELISA microplate wells. A 1:1 mixture of capture antibody and detection antibody, as provided in the kit, was prepared to form an antibody cocktail, and 50 μL of this mixture was added to each well. The plate was sealed and incubated at room temperature on a shaker at 300 rpm for 1 hour. […] The plate was then read using a microplate reader (Promega) at an absorbance of 450 nm.

N-cadherin = test: Real-time PCR, N-cadherin mRNA; assay type: cell-based, human; details: corneal dystrophy-like environment
Method: as §2
(§3) To identify the effect of the lipo-hydroxamic acid derivative prepared above on the expression of fibrosis- and cellular degeneration-related factors in corneal endothelial cells, real-time PCR was performed to detect mRNA expression levels of the fibrosis marker N-cadherin, and the cellular degeneration markers collagen I and fibronectin. The real-time PCR was performed in the same manner as in Example 5-2 above.

collagen I = test: Real-time PCR, collagen I mRNA; assay type: cell-based, human; details: corneal dystrophy-like environment
Method: as §2, §3

fibronectin = test: Real-time PCR, fibronectin mRNA; assay type: cell-based, human; details: corneal dystrophy-like environment
Method: as §2, §3

cleaved caspase-3 = test: Western blot of cleaved caspase-3; assay type: cell-based, human; details: compared to the control group; environment induced 24 hours after sample treatment
Method: (§4) To identify a mechanism of antioxidant activity of the lipo-hydroxamic acid derivative prepared above, Western blot was performed to detect protein expression of nuclear factor erythroid-2-related factor 2 (Nrf2; NCBI Gene ID: 4780) which is an antioxidant transcription factor. First, human corneal endothelial cells were cultured at 3×10^5 cells per well in a 6-well plate coated with FNC Coating Mix for 18 to 24 hours, and the samples were treated. Four hours after the sample treatment, the corneal dystrophy-like environment was induced in accordance with the method described in Example 3-2. […] Protein concentration in the supernatant was determined using a BCA kit (Thermo Fisher Scientific, MA, USA). […]
To identify the effect of the lipo-hydroxamic acid derivative prepared above on apoptosis in corneal endothelial cells, Western blot was performed to detect the protein expression of cleaved caspase-3 which is a major protease involved in apoptosis. […] The anti-cleaved caspase-3 antibody (Asp175; Cell Signaling Technology) was used as the primary antibody, and the cleaved caspase-3 expression was detected by a chemiluminescence image analysis system.

Sprague-Dawley rats = test: Antioxidant activity in vivo, H2O2 level after benzalkonium-induced corneal oxidative stress; set-up: species or system rat; details: 0.1% and 0.3% eye drops, 10 μL, three times a day for 3 days; compared to control (0.02% benzalkonium)
Method: To determine the effect of the sample on oxidative stress, animal experiments were conducted using Sprague-Dawley rats (purchased from Bio Link). To induce oxidative stress in the cornea of an animal model, the anterior chamber of the right eye was punctured using a syringe equipped with a 30G needle, and then the needle was inserted into the corneal limbus to inject 0.02% benzalkonium (BAK), a known oxidative stress inducer. The ocular surface was subsequently rinsed with sterile saline. To determine whether oxidative stress was induced, the H2O2 level, an indicator of oxidative stress, was measured in the anterior aqueous humor and corneal tissue using the Amplex Red Hydrogen Peroxide/Peroxidase assay kit (Invitrogen, MA, USA) according to the manufacturer's instructions. Afterwards, the animal model received 10 μL drops (single dose) of the sample (Sample 1) at a dose of 0.1% or 0.3% for 24 hours, including pretreatment, three times a day for 3 days, and then the H2O2 level in the anterior aqueous humor was measured. Additionally, proteins were extracted from the harvested corneal tissue, and Western blot was performed in the same manner as in Example 5-1 to examine the expression of the Nrf2 protein. […]

Nrf2 = Nrf2 protein expression in corneal tissue in vivo (Western blot); set-up: species or system rat; details: 0.1% and 0.3% eye drops; compared to control (0.02% benzalkonium)
Method: as §4
To determine the effect of the sample on oxidative stress, animal experiments were conducted using Sprague-Dawley rats (purchased from Bio Link). […] To determine whether oxidative stress was induced, the H2O2 level, an indicator of oxidative stress, was measured in the anterior aqueous humor and corneal tissue using the Amplex Red Hydrogen Peroxide/Peroxidase assay kit (Invitrogen, MA, USA) according to the manufacturer's instructions. Afterwards, the animal model received 10 μL drops (single dose) of the sample (Sample 1) at a dose of 0.1% or 0.3% for 24 hours, including pretreatment, three times a day for 3 days, and then the H2O2 level in the anterior aqueous humor was measured. […]

O=C(CCCCC1CCSS1)NOCCO (stereo not drawn) [Sample 1, 5-[1,2]dithiolan-3-yl-pentanoic acid (2-hydroxy-ethoxy)-amide]
Peak area(%) Sample 1 ([1]; Day 1): 99.36% | Peak area(%) Total amount of decomposed products ([1]; Day 1): 0.62% | Peak area(%) Sample 1 ([1]; Day 2): 99.20% | Peak area(%) Total amount of decomposed products ([1]; Day 2): 0.80% | Peak area(%) Sample 1 ([1]; Day 3): 99.36% | Peak area(%) Total amount of decomposed products ([1]; Day 3): 0.64% | Peak area(%) Sample 1 ([1]; Early stage): 99.72% | Peak area(%) Total amount of decomposed products ([1]; Early stage): 0.28% | stability in a liquid phase ([1]; up to day 3): good stability | Peak area (%) ([2]; 0.5 h): 97.37% | Peak area (%) ([2]; 2 h): 92.65% | Peak area (%) ([2]; 18 h): 17.42% | Peak area (%) ([2]; 24 h): 6.00% | oxidative stress (H2O2 level in cell culture medium) [3]: significantly decreased | concentration from which a significant increase in cell viability was observed [4]: ≥ 30 µM | Nrf2 protein expression [5]: significantly increased | mRNA expression of NQO-1 (NQO-1): significantly increased | mRNA expression of HO-1 (HO-1): significantly increased | mRNA expression of peroxiredoxin 1 (Prdx1) (peroxiredoxin 1 (Prdx1)): significantly increased | mRNA expression of ABCB6 (ABCB6): significantly increased | phosphorylation of Smad2/3 protein (Smad2/3): significantly decreased | activity of the Smad3 protein (Smad3): significantly decreased | mRNA expression of N-cadherin (N-cadherin): significantly decreased in a concentration-dependent manner | mRNA expression of collagen I (collagen I): significantly decreased in a concentration-dependent manner | mRNA expression of fibronectin (fibronectin): significantly decreased in a concentration-dependent manner | protein expression of cleaved caspase-3 (cleaved caspase-3): significantly decreased in a concentration-dependent manner | decrease of H2O2 in the anterior aqueous humor (Sprague-Dawley rats): 40-70% | Nrf2 expression in corneal tissue (Nrf2): significantly increased depending on the concentration of the sample

CN(OCCO)C(=O)CCCC[C@@H]1CCSS1 [Sample 3, (R)-5-[1,2]dithiolan-3-yl-pentanoic acid (2-hydroxy-ethoxy)-methyl-amide]
oxidative stress (H2O2 level in cell culture medium) [3]: significantly decreased

O=C(CCCCC1CCSS1)N(O)C(=O)CCCCC1CCSS1 (stereo not drawn) [Sample 5, 5-[1,2]dithiolan-3-yl-pentanoic acid (5-[1,2]dithiolan-3-yl-pentanoyl-hydroxy-amide)]
oxidative stress (H2O2 level in cell culture medium) [3]: significantly decreased
